Data taken from patent publication US6288091A, “Antiherpes virus compounds and methods for their preparation and use” (Boehringer Ingelheim Ltd., priority 1999, dated 2001).
Like-named read-outs stand apart in the source and are kept apart here.

How the values were obtained:
[1] = target: T1, HSV-1 helicase-primase (Human herpesvirus 1, UniProt P10189+P10236); experiment: HSV-1 DNA-dependent ATPase assay (inhibition of HSV-1 helicase-primase); type: biochemical
T1 construct: made in house; host or cells: Sf21 insect cells triply infected with recombinant baculoviruses (UL5, UL8, UL52)
How it was run: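 ATP hydrolysis was measured as inorganic phosphate (malachite green/molybdate, 650 nm) after 20 min at 34°. Reaction: 3 μg/mL purified Sf21-expressed UL5/UL8/UL52 helicase-primase, 25 μM single-stranded M13 DNA hybridized to 68-mer, 4 mM ATP, pH 7.5 HEPES buffer, 3.3% DMSO. Net absorbance change with and without inhibitor gave DNA-dependent ATPase activity.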

[2] = system: HCMV (strain AD169); experiment: Inhibition of HCMV replication, plaque reduction assay (PRA, Hs-68 cells); type: cell-based, Human Cytomegalovirus (HCMV); conditions: read-out: PRA CMV EC50
How it was run: (§1)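 Hs-68 monolayers (80–90% confluent) were infected with ~50 PFU HCMV AD169 for 2 h at 37°, then given compound in DMEM/5% inactivated FBS, refreshed after 4 days and kept 4 more days. Plaques were counted after formaldehyde fixation and crystal violet staining. EC50 derives from percent plaque reduction versus untreated wells.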

[3] = as above; type: cell-based, Human Cytomegalovirus (HCMV); conditions: human, Group 1 Table 5 entries, read-out: Cytotoxic at this concentration (footnote *, PRA CMV)
How it was run: as §1

[4] = Human betaherpesvirus 5, AD169, Hs68, Group 2 Table 1 entries
[5] = Human betaherpesvirus 5, AD169, Hs68, Group 1 Table 6 entries
[6] = Human betaherpesvirus 5, AD169, Hs68, Group 1 Table 5 entries

T1 sequence (P10192 whole entry): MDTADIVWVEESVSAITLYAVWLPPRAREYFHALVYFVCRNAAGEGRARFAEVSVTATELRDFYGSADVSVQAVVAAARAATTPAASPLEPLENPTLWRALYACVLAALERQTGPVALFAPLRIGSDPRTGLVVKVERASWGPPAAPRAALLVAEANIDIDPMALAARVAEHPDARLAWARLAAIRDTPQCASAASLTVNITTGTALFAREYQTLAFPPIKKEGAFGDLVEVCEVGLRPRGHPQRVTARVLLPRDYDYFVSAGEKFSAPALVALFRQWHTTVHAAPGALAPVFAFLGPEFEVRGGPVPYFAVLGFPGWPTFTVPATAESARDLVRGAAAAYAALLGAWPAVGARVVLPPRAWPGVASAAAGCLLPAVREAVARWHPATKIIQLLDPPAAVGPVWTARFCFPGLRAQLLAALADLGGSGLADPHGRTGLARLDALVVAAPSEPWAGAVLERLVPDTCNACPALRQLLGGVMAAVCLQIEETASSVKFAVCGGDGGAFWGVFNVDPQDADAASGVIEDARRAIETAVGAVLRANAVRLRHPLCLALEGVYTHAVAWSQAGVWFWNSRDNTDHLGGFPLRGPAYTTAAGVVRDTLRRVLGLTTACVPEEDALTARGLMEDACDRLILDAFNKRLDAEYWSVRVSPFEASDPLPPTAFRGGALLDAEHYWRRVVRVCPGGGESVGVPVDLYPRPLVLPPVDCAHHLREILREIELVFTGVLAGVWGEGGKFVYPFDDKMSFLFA
T1 sequence (P10236 whole entry): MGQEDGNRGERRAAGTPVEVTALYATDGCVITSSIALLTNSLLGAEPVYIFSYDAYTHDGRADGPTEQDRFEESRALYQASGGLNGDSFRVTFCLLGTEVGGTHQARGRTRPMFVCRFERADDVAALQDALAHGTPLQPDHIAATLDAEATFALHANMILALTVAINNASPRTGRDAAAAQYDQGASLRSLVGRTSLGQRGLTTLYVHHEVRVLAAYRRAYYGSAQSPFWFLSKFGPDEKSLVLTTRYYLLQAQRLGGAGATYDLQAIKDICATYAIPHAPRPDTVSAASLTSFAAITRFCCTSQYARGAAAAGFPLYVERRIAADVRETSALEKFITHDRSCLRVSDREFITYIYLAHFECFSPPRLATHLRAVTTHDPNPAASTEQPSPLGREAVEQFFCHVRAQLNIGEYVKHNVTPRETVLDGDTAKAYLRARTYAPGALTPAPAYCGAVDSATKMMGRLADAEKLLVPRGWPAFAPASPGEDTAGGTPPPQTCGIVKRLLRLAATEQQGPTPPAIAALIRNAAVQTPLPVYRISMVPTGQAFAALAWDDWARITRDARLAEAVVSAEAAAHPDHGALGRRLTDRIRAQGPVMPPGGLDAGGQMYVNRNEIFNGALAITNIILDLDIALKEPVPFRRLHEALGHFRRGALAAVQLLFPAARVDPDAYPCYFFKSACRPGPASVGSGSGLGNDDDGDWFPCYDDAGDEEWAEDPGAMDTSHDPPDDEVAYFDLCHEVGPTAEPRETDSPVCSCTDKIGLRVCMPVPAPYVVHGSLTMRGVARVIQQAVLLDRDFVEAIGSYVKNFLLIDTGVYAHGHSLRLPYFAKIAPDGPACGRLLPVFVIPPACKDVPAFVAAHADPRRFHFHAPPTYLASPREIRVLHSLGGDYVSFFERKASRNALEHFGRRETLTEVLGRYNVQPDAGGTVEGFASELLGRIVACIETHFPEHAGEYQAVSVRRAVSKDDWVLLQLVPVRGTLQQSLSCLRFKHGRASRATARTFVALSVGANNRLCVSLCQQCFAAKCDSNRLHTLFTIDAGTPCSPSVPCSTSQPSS
T1 sequence (P10189 whole entry): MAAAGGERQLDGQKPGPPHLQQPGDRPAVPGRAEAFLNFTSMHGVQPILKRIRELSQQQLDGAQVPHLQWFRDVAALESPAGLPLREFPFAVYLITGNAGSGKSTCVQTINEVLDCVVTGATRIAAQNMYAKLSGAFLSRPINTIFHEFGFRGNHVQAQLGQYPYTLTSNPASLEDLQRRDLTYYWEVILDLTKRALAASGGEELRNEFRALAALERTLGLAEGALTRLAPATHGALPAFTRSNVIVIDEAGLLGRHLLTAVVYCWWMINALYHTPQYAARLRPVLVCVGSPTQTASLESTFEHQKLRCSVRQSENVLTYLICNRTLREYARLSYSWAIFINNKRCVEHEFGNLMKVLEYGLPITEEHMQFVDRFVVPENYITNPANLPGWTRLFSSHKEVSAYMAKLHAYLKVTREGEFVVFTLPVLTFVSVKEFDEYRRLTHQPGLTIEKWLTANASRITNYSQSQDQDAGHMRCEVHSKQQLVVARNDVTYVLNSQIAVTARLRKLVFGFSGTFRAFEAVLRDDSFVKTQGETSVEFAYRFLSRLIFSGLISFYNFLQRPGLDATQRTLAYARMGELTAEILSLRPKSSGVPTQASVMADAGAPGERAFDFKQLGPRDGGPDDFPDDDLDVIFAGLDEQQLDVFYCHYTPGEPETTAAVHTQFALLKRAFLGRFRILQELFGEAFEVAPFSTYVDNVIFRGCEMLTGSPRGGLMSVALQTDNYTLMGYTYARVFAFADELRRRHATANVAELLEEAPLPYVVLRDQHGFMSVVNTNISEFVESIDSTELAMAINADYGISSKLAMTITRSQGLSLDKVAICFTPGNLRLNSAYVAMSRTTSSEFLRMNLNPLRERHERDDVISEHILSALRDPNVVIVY

SMILES: CCCCN(CCCC)C(=O)C(=O)Nc1ccc(-c2csc(N)n2)cc1 [Example 1, N-{4-(2-Amino-4-thiazolyl)phenyl}-N',N'-dibutylethanediamide]
- IC50 ([1]; Group 2 Table 2 entries (A = C(O))): 7 µM
- EC50 ([2]; Human betaherpesvirus 5, AD169, Hs68, Group 2 Table 2 entries): > 4 µM

SMILES: CCCCN(CCCC)C(=O)Nc1ccc(-c2csc(N)n2)cc1 [Example 1, N-{4-(2-Amino-4-thiazolyl)phenyl}-N,N-dibutylurea]
- IC50 ([1]; Group 2 Table 1 entries): 4.2 µM
- EC50 [2, 4]: 37 µM

SMILES: Nc1nc(-c2ccc(NC(=O)[C@@H]3CCC(=O)N3Cc3ccccc3)cc2)cs1 [Example 2]
- IC50 ([1]; Group 1 Table 6 entries): 6.2 µM
- EC50 [2, 5]: 50 µM

SMILES: Nc1nc(-c2ccc(NC(=O)[C@H]3CCC(=O)N3CC3CCCCC3)cc2)cs1 [Example 3]
- IC50 ([1]; Group 1 Table 6 entries): 6.2 µM
- EC50 [2, 5]: 45 µM

SMILES: CN(CCc1ccccn1)C(=O)Nc1ccc(-c2csc(N)n2)cc1 [Example 4]
- IC50 ([1]; Group 2 Table 1 entries): 3.7 µM
- EC50 [2, 4]: > 144 µM

SMILES: Nc1nc(-c2ccc(NC(=O)[C@@H]3CCCN3C(=O)c3ccccc3)cc2)cs1 [Example 5]
- IC50 ([1]; Group 1 Table 6 entries): 1.6 µM
- EC50 [2, 5]: > 89 µM

SMILES: Nc1nc(-c2ccc(NC(=O)[C@@H]3CCCN3C(=O)C3CCCCC3)cc2)cs1 [Example 6]
- IC50 ([1]; Group 1 Table 6 entries): 0.052 µM
- EC50 [2, 5]: 22 µM

SMILES: CC(C)(C)OC(=O)N1CCC[C@@H]1C(=O)Nc1ccc(-c2csc(N)n2)cc1 [Example 8]
- IC50 ([1]; Group 1 Table 6 entries): 7.5 µM
- EC50 [2, 5]: > 83 µM

SMILES: Nc1nc(-c2ccc(NC(=O)[C@H]3CCCN3C(=O)c3ccccc3)cc2)cs1 [Example 9]
- IC50 ([1]; Group 1 Table 6 entries): 1.6 µM
- EC50 [2, 5]: > 88 µM

SMILES: CN(C(=O)OC(C)(C)C)[C@@H](Cc1ccccc1)C(=O)Nc1ccc(-c2csc(N)n2)cc1 [Example 10]
- IC50 ([1]; Group 1 Table 5 entries): 0.09 µM
- EC50 [2, 6]: 12 µM

SMILES: Nc1nc(-c2ccc(NC(=O)[C@H]3CCCN3C(=O)C3CCCCC3)cc2)cs1 [Example 10]
- IC50 ([1]; Group 1 Table 6 entries): 0.13 µM
- EC50 [2, 5]: 48 µM

SMILES: CCCC(CCC)NC(=O)Nc1ccc(-c2csc(N)n2)cc1 [Example 11]
- IC50 ([1]; Group 2 Table 1 entries): 17 µM
- EC50 [2, 4]: 13 µM

SMILES: Nc1nc(-c2ccc(NC(=O)[C@H](Cc3ccccc3)N(Cc3ccccc3)C(=O)C3CCCCC3)cc2)cs1 [Example 11]
- IC50 ([1]; Group 1 Table 5 entries): 0.4 µM
- EC50 [2, 6]: 8 µM

SMILES: CC(C)(C)NC(=O)Nc1ccc(-c2csc(N)n2)cc1 [Example 12]
- IC50 ([1]; Group 2 Table 1 entries): 20 µM
- EC50 [2, 4]: > 32 µM

SMILES: CN(CCc1ccccn1)C(=O)Nc1ccc(-c2csc(NC(=O)OC(C)(C)C)n2)cc1 [Example 14]
- IC50 ([1]; Group 2 Table 1 entries): > 100 µM
- EC50 [2, 4]: 2 µM

SMILES: CCCCN(CCCC)C(=O)Nc1ccc(-c2csc(NC(=O)OC(C)(C)C)n2)cc1 [Example 15]
- IC50 ([1]; Group 2 Table 1 entries): > 100 µM
- EC50 [2, 4]: 1.1 µM

SMILES: CC(C)(C)CC(=O)N[C@@H](Cc1ccccc1)C(=O)Nc1ccc(-c2csc(N)n2)cc1 [Example 19]
- IC50 ([1]; Group 1 Table 5 entries): 0.051 µM
- MCC at 192 h [3]: 21 µM
- EC50 [2, 6]: 21 µM

SMILES: Nc1nc(-c2ccc(NC(=O)[C@H](Cc3ccccc3)NS(=O)(=O)N3CCOCC3)cc2)cs1 [Example 25]
- IC50 ([1]; Group 1 Table 5 entries): 0.17 µM
- EC50 [2, 6]: 55 µM
